{
  "source": "patent US10039806B2",
  "about": "“Methods and compositions for treating antiprogestin-resistant cancers” (Fundación Sales, priority 2011, dated 2018)",
  "key": {"59-HI tumors": {"system": "59-HI tumors", "assay": "Constitutive-resistant tumor transplanted s.c. in BALB/c mice", "format": "in vivo, mouse", "settings": "RU-486 12 mg/kg/day s.c.; 5azadC 1 mg/kg every other day i.p.; 13 days", "procedure": "(§1) C4-2-HI, 59-HI, and C4-HIR tumors were transplanted s.c nearby the mammary gland 4th in syngenic mice, and measured every 2 days (length and width). Treatments were initiated when the tumors were palpable. […] The mice were inoculated intraperitoneally (i.p.) with 0.75 mg/kg 5azadC (for C4-2-HI and C4-HIR tumors) or 1 mg/kg 5azadC (for 59-HI tumors) every other day. All the experiments were repeated twice using five mice per group. The animals were euthanized after 13 days of treatment, and tumor samples were removed and frozen at −80° C. or fixed in 10% formaldehyde.\n(§2) Cytosolic or nuclear extracts were processed for western blots as described previously. The cells were lysed using Mammalian Protein Extraction Reagent (Pierce, Rockford, Ill.) according the manufacturer's instructions. The western blot membranes were incubated with antibodies against PR (C-19, Santa Cruz Biotech, CA, or Ab-7, Neomarkers, Lab Vision Corp, Fremont, Calif.), PRB (Ab-6, Neomarkers), ERKs (SC-94, Santa Cruz Biotech), E-Cad (610182, BD), Actin (1-19, Santa Cruz Biotech), DnmtI, Dnmt3a and Dnmt3b (H-300, H-295, and H-230, respectively, Santa Cruz Biotech), RARβ (SC-14028, Santa Cruz Biotech), PTEN Ab32199, Abcam), p16 (SC-1207, Santa Cruz Biotech), Rb (SC-50, Santa Cruz Biotech), or glucocorticoid receptors (GRs) (SC-1004, Santa Cruz Biotech) overnight at 4° C., at a concentration of 2 μg/ml in PBST (0.8% NaCl, 0.02% KCl, 0.144% Na2PO4, 0.024% KH2PO4, pH 7.4, 0.1% Tween 20). The band intensities from 3 to 4 different tumor samples indifferent western blots were quantified using Image Quant software.\n(§3) Sections of formalin-fixed, paraffin-embedded tissue were processed as previously described and stained with the PRA-specific antibody (C-19) using the avidin-biotin-peroxidase complex technique (Vectastain Elite ABC kit; Vector), as described previously.\n(§4) H&E stained sections of livers, spleens, and kidneys from the 5azadC-treated mice (1 mg/kg or 0.75 mg/kg/every other day; n=5) were studied by an expert mouse pathologist. The percentage of tumor stoma versus tumor parenchyma was quantified with the ImageJ software in treated and untreated tumors. The stromal area in relation to the total tumor area was calculated in five representative fields of each sample, using 400× magnification, in three different tumor samples of each group, and the mean±SEM was calculated. Mitotic and apoptotic indices were counted in 10 and 15 high-power fields (HPFs), respectively, of each section, using 1000× magnification, and expressed as the mean±SEM of the percentage of the ratios between the total number of events (mitosis or apoptosis) and the total cell number per HPF. Mitotic figures were identified morphologically by the condensed “hairy” aspect of the chromosomes. Morphological identification of apoptosis was performed according to criteria previously reported, which correlated with the deoxynucleotidyl transferase mediated dUTP-biotin nick end labeling (TUNEL) method.\nas §1, with “C4-2-HI” for “C4-2-HI, 59-HI,”, “59-HI” for “C4-HIR”, “every other day” for “(for C4-2-HI”, “s.c. with” for “C4-HIR tumors) or”, “TSA” for “5azadC (for 59-HI tumors)”, “−80 C” for “−80° C.”"}, "C4-2-HI tumors": {"system": "C4-2-HI tumors", "assay": "Constitutive-resistant tumor transplanted s.c. in BALB/c mice", "format": "in vivo, mouse", "procedure": "as §1, §2, §3, §4\nas §1, with “C4-2-HI” for “C4-2-HI, 59-HI,”, “59-HI” for “C4-HIR”, “every other day” for “(for C4-2-HI”, “s.c. with” for “C4-HIR tumors) or”, “TSA” for “5azadC (for 59-HI tumors)”, “−80 C” for “−80° C.”"}, "IBH-6-PRA tumors": {"system": "IBH-6-PRA tumors", "assay": "Xenograft in nude mice", "format": "in vivo, human", "source_text": "BH-6 cell line was developed from an invasive ductal breast carcinoma (1). IBH-6 cells express basal levels of hormone receptors, they are tumorigenic and in vivo express higher levels of PRB than PRA (2). Cells were transfected with human PRB, PRA (pSG5-PRB, pSG5-PRA, kindly provided by K. Horwitz) or with the empty vector (pSG5), together with a plasmid encoding the neomycin resistance gene pIRES-N1(3), using Lipofectamine transfection reagent (Invitrogen) following the manufacturer's instructions. Transfected and selected cells were cultured in medium supplemented with […] G418 (neomycin analogue, GIBCO). The expression of PRB and PRA were analyzed by western blot and immunofluorescence (using Ab7 and Ab6 antibodies from Thermo Fisher). T47D-YA or YB were kindly provided by K. Horwitz and cultured as previously described (4).\nTransfected and selected cells were grown up to confluence, washed with PBS, detached with 0.25% trypsin, centrifuged at 1000 rpm for 10 min and resuspended in a final concentration of 10^6 (IBH-6) or 5×10^6 (T47D) cells per 100 μl of culture medium. The cells were sc inoculated into the right flank of nu/nu (IBH-6) or NOD/LtSz-scid/IL-2Rgamma null (T47D-YA or -YB cells) female mice. Only in experiments involving T47D cells E2 silastic pellets (0.5 mg) were implanted sc into the back of the animals one week prior tumor cell inoculation and 70 μl of Matrigel were mixed with the cell suspension at the moment of injection. MFP (6 mg) silastic pellets were sc implanted when tumors reached 20-40 mm^2. For T47D cells, experiments were repeated inoculating both cell types (T47D-YA or -YB) simultaneously in the left or right flank of the mouse, respectively.\nCytosolic or nuclear extracts were processed for western blots as described previously (5). The cells were lysed using Mammalian Protein Extraction Reagent (Pierce, Rockford, Ill.) according to the manufacturer's instructions. […] The band intensities from 3-4 different samples in different western blots were quantified using Image Quant software."}, "[1]": {"system": "MXT mouse model of breast cancer", "settings": "1 or 10 mg/kg/day from one day post-transplantation; cited from earlier work"}, "[2]": {"system": "thymic, renal pelvis, colon, pancreatic carcinomas, leiomyosarcoma, histiocytoma", "settings": "200 mg/day; cited from earlier work"}, "mammary glands": {"system": "mammary glands", "settings": "50 mg/every other day, three months; cited from earlier work"}},
  "data": [
    {"compound": "CC#C[C@]1(O)CC[C@H]2[C@@H]3CCC4=CC(=O)CCC4=C3[C@@H](c3ccc(N(C)C)cc3)C[C@@]21C", "note": "[RU-486, mifepristone]", "values": [
      {"measurement": "tumor growth", "setting": "59-HI tumors", "value": "no significant differences"},
      {"measurement": "tumor growth", "setting": "C4-2-HI tumors; RU-486 12 mg/kg/day s.c., 5azadC 0.75 mg/kg every other day i.p., 13 days", "value": "no significant differences"},
      {"measurement": "tumor growth, MIF alone", "setting": "C4-2-HI tumors; tumor only expresses PR-B, FIG. 15", "value": "stimulated"},
      {"measurement": "in vivo growth", "setting": "IBH-6-PRA tumors; MFP 6 mg pellet, p<0.05", "value": "inhibited"},
      {"measurement": "expression of MYC", "setting": "IBH-6-PRA tumors; western blot, p<0.01", "value": "significantly inhibited"},
      {"measurement": "expression of CCND1", "setting": "IBH-6-PRA tumors; western blot, p<0.05", "value": "significantly inhibited"},
      {"measurement": "tumor take and stimulatory effects of E2 and MPA", "setting": "[1]", "value": "inhibited both tumor take and the stimulatory effects of E2 and MPA"},
      {"measurement": "clinical outcome", "setting": "[2]", "value": "Improvements and pain relief were observed in all patients"},
      {"measurement": "cell proliferation in mammary gland aspirates", "setting": "mammary glands", "value": "Inhibition of cell proliferation"}
    ]}
  ]
}
